Tested on: production of nitric oxide (NO) by murine macrophages (RAW 264.7 cell line) activated by lipopolysaccharide (LPS)
Assay: Nitric oxide (NO) release by LPS-activated RAW 264.7 macrophages, Griess Reagent System
Type: cell-based
Protocol: In addition, positive control cells were treated with 20 μM dexamethasone.

Row | SMILES | NO inhibition by p-cymene alone (p-cymene only 0.1%, 0.25%, 0.5%, 0.75% solutions, final dilution 1:200,000) | NO inhibition by carvacrol alone (carvacrol only 0.05%, 0.1%, 0.15% solutions, dilutions 1:500,000, 1:200,000, 1:100,000)
1 | Cc1ccc(C(C)C)cc1 [p-cymene] | None of the p-cymene-only dilutions caused any NO inhibition | 
2 | Cc1ccc(C(C)C)cc1O [carvacrol] |  | None of the carvacrol-only dilutions caused any NO inhibition
